From ChEMBL document CHEMBL1201862, “PubChem BioAssay data set” (2004)
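Assay format: 96-well plates, 48-hour exposure. Here, GI50 denotes the concentration required for 50% inhibition of growth.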 Calls of active or inactive are those of the source. Cut-off read from the data, not from the text of the source: active = GI50 up to about 1.1 µM and inactive = higher.

Legend:
Assay in all cases: NCI anticancer screen, dose series, 48 h
MDA-MB-435 = tested on: MDA-MB-435
BT-549 = tested on: BT-549
OVCAR-4 = tested on: OVCAR-4
M14 = tested on: M14
HOP-62 = tested on: HOP-62
OVCAR-8 = tested on: OVCAR-8
SN12C = tested on: SN12C
SW-620 = tested on: SW-620
Malme-3M = tested on: Malme-3M
HCC 2998 = tested on: HCC 2998
KM12 = tested on: KM12
NCI-H522 = tested on: NCI-H522
UO-31 = tested on: UO-31
A549 = tested on: A549
UACC-257 = tested on: UACC-257
EKVX = tested on: EKVX
MDA-N = tested on: MDA-N
NCI/ADR-RES = tested on: NCI/ADR-RES
HT-29 = tested on: HT-29

CCC1CN2CCc3c([nH]c4ccccc34)[C@@](C(=O)OC)(c3cc4c(cc3OC)N(C)C3C(O)(C(=O)OC)C(C(=O)OC)C5(CC)C=CCN6CCC43C65)C[C@@H](C2)[C@@H]1C(C)(C)C (stereo partly drawn) was tested, and the GI50 (MDA-MB-435) was 0.196 µM (active), the GI50 (BT-549) was 1.61 µM (inactive) and the GI50 (OVCAR-4) was 3.15 µM (inactive). The GI50 (M14) was 0.401 µM (active), the GI50 (HOP-62) was 0.257 µM (active) and the GI50 (OVCAR-8) was 0.5 µM (active). For the same molecule, the GI50 (SN12C) was 0.607 µM (active), the GI50 (SW-620) was 0.33 µM (active) and the GI50 (Malme-3M) was 0.486 µM (active). The GI50 (HCC 2998) was 0.373 µM (active), the GI50 (KM12) was 0.419 µM (active) and the GI50 (NCI-H522) was 0.292 µM (active). The GI50 (UO-31) was 1.47 µM (inactive), the GI50 (A549) was 0.649 µM (active) and the GI50 (UACC-257) was 0.514 µM (active). For the same molecule, the GI50 (EKVX) was 1.98 µM (inactive), the GI50 (MDA-N) was 0.187 µM (active) and the GI50 (NCI/ADR-RES) was 2.75 µM (inactive). The GI50 (HT-29) was 0.328 µM (active).
In the case of Cc1ccc(S[C@@H](C)[C@@](O)(C(N)=O)c2ccccc2)cc1, the GI50 (MDA-MB-435) is reported as 45.6 µM (inactive), the GI50 (BT-549) is reported as 30.1 µM (inactive) and the GI50 (OVCAR-4) is reported as 21 µM (inactive). For the same molecule, the GI50 (M14) was > 100 µM (inactive), the GI50 (HOP-62) was 23.6 µM (inactive) and the GI50 (OVCAR-8) was 38.5 µM (inactive). The GI50 (SN12C) was > 100 µM (inactive), the GI50 (SW-620) was 39 µM (inactive) and the GI50 (Malme-3M) was 21 µM (inactive). The GI50 (HCC 2998) was > 100 µM (inactive), the GI50 (KM12) was 40.8 µM (inactive) and the GI50 (NCI-H522) was 16.7 µM (inactive). The GI50 (UO-31) was 15.2 µM (inactive), the GI50 (A549) was 42.1 µM (inactive) and the GI50 (UACC-257) was 13 µM (inactive). For the same molecule, the GI50 (EKVX) was 13.9 µM (inactive), the GI50 (MDA-N) was 33.8 µM (inactive) and the GI50 (NCI/ADR-RES) was 19.9 µM (inactive). The GI50 (HT-29) was 41.3 µM (inactive).
Cc1sc(C)c2c1C(=O)CC2N (stereo not drawn) was tested, and the GI50 (MDA-MB-435) was 20.8 µM (inactive), the GI50 (BT-549) was 20 µM (inactive) and the GI50 (OVCAR-4) was 28 µM (inactive). The GI50 (M14) was 14.1 µM (inactive), the GI50 (HOP-62) was > 85.5 µM (inactive) and the GI50 (OVCAR-8) was 21.5 µM (inactive). For the same molecule, the GI50 (SN12C) was 24.2 µM (inactive), the GI50 (SW-620) was 6 µM (inactive) and the GI50 (Malme-3M) was 13.7 µM (inactive). The GI50 (HCC 2998) was 19.3 µM (inactive), the GI50 (KM12) was 16.4 µM (inactive) and the GI50 (NCI-H522) was 3.3 µM (inactive). For the same molecule, the GI50 (UO-31) was 15.6 µM (inactive), the GI50 (A549) was 29.3 µM (inactive) and the GI50 (UACC-257) was 17.5 µM (inactive). The GI50 (EKVX) was 44.9 µM (inactive), the GI50 (MDA-N) was 21.1 µM (inactive) and the GI50 (NCI/ADR-RES) was 50.4 µM (inactive). For the same molecule, the GI50 (HT-29) was 24.9 µM (inactive).
In the case of COC1=C2CC(C)CC(OC)[C@@H](OC(=O)CCN)[C@H](C)/C=C(\C)C(OC(N)=O)C(OC)/C=C\C=C(/C)C(=O)NC(=CC1=O)C2=O (stereo partly drawn), the GI50 (MDA-MB-435) is reported as 0.802 µM (active), the GI50 (BT-549) is reported as 4.91 µM (inactive) and the GI50 (OVCAR-4) is reported as 3.03 µM (inactive). For the same molecule, the GI50 (M14) was 4.88 µM (inactive), the GI50 (HOP-62) was 6.38 µM (inactive) and the GI50 (OVCAR-8) was 1.9 µM (inactive). The GI50 (SN12C) was 1.07 µM (active), the GI50 (SW-620) was 0.357 µM (active) and the GI50 (Malme-3M) was 0.735 µM (active). The GI50 (HCC 2998) was 1.91 µM (inactive), the GI50 (KM12) was 2.64 µM (inactive) and the GI50 (NCI-H522) was 0.255 µM (active). The GI50 (UO-31) was 4.54 µM (inactive), the GI50 (A549) was 15.7 µM (inactive) and the GI50 (UACC-257) was 1.43 µM (inactive). For the same molecule, the GI50 (EKVX) was 12 µM (inactive), the GI50 (MDA-N) was 0.78 µM (active) and the GI50 (NCI/ADR-RES) was 16.4 µM (inactive). The GI50 (HT-29) was 0.465 µM (active).
In the case of COC(=O)/C=C\C(C#N)(C#N)/N=C/c1ccc(C)s1, the GI50 (MDA-MB-435) is reported as 2.47 µM (inactive), the GI50 (BT-549) is reported as 2.83 µM (inactive) and the GI50 (OVCAR-4) is reported as 3.78 µM (inactive). The GI50 (M14) was 1.85 µM (inactive), the GI50 (HOP-62) was 14.9 µM (inactive) and the GI50 (OVCAR-8) was 3.69 µM (inactive). The GI50 (SN12C) was 2.29 µM (inactive), the GI50 (SW-620) was 0.668 µM (active) and the GI50 (Malme-3M) was 1.6 µM (inactive). For the same molecule, the GI50 (HCC 2998) was 17.7 µM (inactive), the GI50 (KM12) was 13.1 µM (inactive) and the GI50 (NCI-H522) was 0.713 µM (active). For the same molecule, the GI50 (UO-31) was 1.67 µM (inactive), the GI50 (A549) was 18.4 µM (inactive) and the GI50 (UACC-257) was 2.73 µM (inactive). For the same molecule, the GI50 (EKVX) was 5.31 µM (inactive), the GI50 (MDA-N) was 2.49 µM (inactive) and the GI50 (NCI/ADR-RES) was 5.92 µM (inactive). The GI50 (HT-29) was 1.51 µM (inactive).
In the case of CC(=O)c1c(SCCN2CCOCC2)n(-c2ccccc2)c(=S)n(-c2ccccc2)c1=O, the GI50 (MDA-MB-435) is reported as 16 µM (inactive), the GI50 (BT-549) is reported as 21.1 µM (inactive) and the GI50 (OVCAR-4) is reported as > 46.2 µM (inactive). The GI50 (M14) was 16.1 µM (inactive), the GI50 (HOP-62) was 26.2 µM (inactive) and the GI50 (OVCAR-8) was 19.3 µM (inactive). For the same molecule, the GI50 (SN12C) was 16.9 µM (inactive), the GI50 (SW-620) was 20.7 µM (inactive) and the GI50 (Malme-3M) was 28.2 µM (inactive). The GI50 (HCC 2998) was 14.3 µM (inactive), the GI50 (KM12) was > 39.7 µM (inactive) and the GI50 (NCI-H522) was 21.8 µM (inactive). The GI50 (UO-31) was 14.1 µM (inactive), the GI50 (A549) was 35.2 µM (inactive) and the GI50 (UACC-257) was 15.4 µM (inactive). For the same molecule, the GI50 (EKVX) was 48.2 µM (inactive), the GI50 (MDA-N) was 18.8 µM (inactive) and the GI50 (NCI/ADR-RES) was > 57 µM (inactive). For the same molecule, the GI50 (HT-29) was 23.8 µM (inactive).
For c1ccc2c(c1)ncn2C1CCCCO1 (stereo not drawn), the GI50 (MDA-MB-435) was > 100 µM (inactive), the GI50 (BT-549) was > 100 µM (inactive) and the GI50 (OVCAR-4) was > 100 µM (inactive). For the same molecule, the GI50 (M14) was > 100 µM (inactive), the GI50 (HOP-62) was > 100 µM (inactive) and the GI50 (OVCAR-8) was > 100 µM (inactive). For the same molecule, the GI50 (SN12C) was > 100 µM (inactive), the GI50 (SW-620) was > 100 µM (inactive) and the GI50 (Malme-3M) was > 100 µM (inactive). For the same molecule, the GI50 (HCC 2998) was > 100 µM (inactive), the GI50 (KM12) was > 100 µM (inactive) and the GI50 (NCI-H522) was > 100 µM (inactive). The GI50 (UO-31) was > 100 µM (inactive), the GI50 (A549) was > 100 µM (inactive) and the GI50 (UACC-257) was > 100 µM (inactive). For the same molecule, the GI50 (EKVX) was > 100 µM (inactive), the GI50 (MDA-N) was > 100 µM (inactive) and the GI50 (NCI/ADR-RES) was > 100 µM (inactive). For the same molecule, the GI50 (HT-29) was > 100 µM (inactive).
